Assay results as given in patent US7338948B2, “Use of quetiapine” (AstraZeneca AB, priority 2000, dated 2008).

What was measured:
[1] = tested on: Conduct Disorder, Childhood Onset, Moderate Severity and Attention Deficit Hyperactivity Disorder (ADHD), Combined Type; experiment: Case report: patient with Conduct Disorder and ADHD treated with successive drugs
Excerpt: A person was diagnosed with ‘Conduct Disorder, Childhood Onset, Moderate Severity’ and ‘Attention Deficit Hyperactivity Disorder (ADHD), Combined Type’ (DSM-IV diagnostic criteria).

[2] = Drug level printed in brackets after the dose in the case report; settings: valproate 750 mg
Description: In addition, they were given lithium at gradually increasing doses up to 1125 mg/day (1.7 ng/mL).

Q: With `OCCOCCN1CCN(C2=Nc3ccccc3Sc3ccccc32)CC1` [Quetiapine, 11-(4-[2-(2-hydroxyethoxy)ethyl]-1-piperazinyl)dibenzo[b,f][1.4]thiazepine] as the compound, how does the “clinical response after 90 days” value ([1]; after 90 days on quetiapine 1000 mg/day and amphetamine-based product 45 mg/day) read?
A: The value was “complete resolution of previous symptoms”.

Q: And the “clinical response (psychiatric symptoms)” value ([1]; quetiapine 1000 mg/day (400 mg morning, 600 mg evening) with amphetamine-based product 45 mg/day)?
A: Its value is “dramatic reduction of their psychiatric symptoms”.

Q: What about the “clinical response (aggression)” value ([1]; quetiapine increased from 50 to 300 mg/day, with amphetamine-based product 60 mg/day) of the same compound?
A: The value was “continued to demonstrate aggression”.

Q: Which “clinical response (earlier treatment)” value ([1]; methylphenidate taken before the amphetamine-based product and imipramine) does the source give for `COC(=O)C(c1ccccc1)C1CCCCN1` (centres unmarked) [methylphenidate] here?
A: Its value is “eventually became ineffective”.

Q: Which drug level [2] does the source give for `CCCC(CCC)C(=O)O` [Valproate] here?
A: The drug level was 115 ng/mL.
